Measurements from patent US8952024B2, “Herbicidal pyrimidone derivatives” (E I du Pont de Nemours and Company, priority 2009, dated 2015).
Values belong to the compound of their own block, whether it stands above or below them.

Columns and labels:
[1] = system: deadnettle (henbit deadnettle, Lamium amplexicaule); experiment: Test B pre-/postemergence plant response; type: in vivo; conditions: Postemergence
Procedure, shortened: (§1)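 Greenhouse herbicide screen. Pre- and postemergence (1- to 4-leaf) spray of compound in solvent/surfactant mixture; loam–sand soil for pre, peat/vermiculite medium for post. Visual control rating 0–100 at 13 to 15 days after treatment.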

[2] = system: Russian thistle (Salsola kali); experiment: Test B pre-/postemergence plant response; type: in vivo; conditions: Preemergence; for Russian Thistle plant response rating: 250 g ai/ha, 0 to 100 scale
Procedure, shortened: as §1

[3] = system: field poppy (Papaver rhoeas); experiment: Test C plant response; type: in vivo; conditions: Preemergence, scale 0 to 100
[4] = system: green foxtail (Setaria viridis); experiment: Test C plant response; type: in vivo; conditions: Preemergence, scale 0 to 100
[5] = system: wild mustard (Sinapis arvensis); experiment: Test C plant response; type: in vivo; conditions: Preemergence, scale 0 to 100
wild oat (Avena fatua) = experiment: Test C plant response; type: in vivo; conditions: Preemergence, scale 0 to 100
[6] = system: blackgrass (Alopecurus myosuroides); experiment: Test C plant response; type: in vivo; conditions: Preemergence, scale 0 to 100
[7] = system: spring wheat (Triticum aestivum); experiment: Test C plant response; type: in vivo; conditions: Preemergence, scale 0 to 100
[8] = system: bromegrass (downy bromegrass, Bromus tectorum); experiment: Test C plant response; type: in vivo; conditions: Preemergence, scale 0 to 100
[9] = system: bluegrass (annual bluegrass, Poa annua); experiment: Test C plant response; type: in vivo; conditions: Preemergence, scale 0 to 100
[10] = system: winter barley (Hordeum vulgare); experiment: Test C plant response; type: in vivo; conditions: Preemergence, scale 0 to 100
[11] = system: pigweed (Amaranthus retroflexus); experiment: Test C plant response; type: in vivo; conditions: Preemergence, scale 0 to 100
[12] = system: buckwheat (wild buckwheat, Polygonum convolvulus); experiment: Test C plant response; type: in vivo; conditions: Preemergence, scale 0 to 100
kochia (Kochia scoparia) = experiment: Test C plant response; type: in vivo; conditions: Preemergence, scale 0 to 100
[13] = system: spring barley (Hordeum vulgare); experiment: Test C plant response; type: in vivo; conditions: Preemergence, scale 0 to 100
[14] = system: field violet (Viola arvensis); experiment: Test C plant response; type: in vivo; conditions: Preemergence, scale 0 to 100
[15] = system: Russian thistle (Salsola iberica); experiment: Test F combination of compound 2 with bromoxynil, postemergence; type: in vivo; conditions: 15 days, mean of three replicates, scale 0 to 100
Experimental: Test F evaluated the effect of combining compound 2 with bromoxynil. The test species for this experiment was Russian thistle (Salsola iberica), which was prepared by sowing seeds into a blend of loam soil and sand. Test chemicals were formulated in a non-phytotoxic solvent mixture that included a surfactant and applied postemergence to plants ranging in height from 12 to 20 cm. […] Treatments consisted of Compound 2, bromoxynil, or their combination, using a spray volume of 457 L/ha. Each treatment was replicated three times. Treated plants and untreated controls were maintained in a greenhouse for 15 days, after which time all plants were visually evaluated and compared to the untreated controls. […] Colby's Equation was used to determine the herbicidal effects expected from the mixtures. Colby's Equation (Colby, S.

[16] = system: Russian thistle (Salsola iberica); experiment: Test C plant response; type: in vivo; conditions: Preemergence, scale 0 to 100
[17] = 31 g ai/ha, 0 to 100 scale (0 no effect, 100 complete control)
[18] = 125 g ai/ha, scale 0 to 100 (0 no effect, 100 complete control)
[19] = 250 g ai/ha, scale 0 to 100 (0 no effect, 100 complete control), 13 to 15 days
[20] = 31 g ai/ha, scale 0 to 100 (0 no effect, 100 complete control)
[21] = 62 g ai/ha, scale 0 to 100, 0 no effect, 100 complete control
[22] = 125 g ai/ha, scale 0 to 100, 0 no effect, 100 complete control

SMILES: CCCCn1c(C2CC2)ncc(C(=O)C2=C(O)CCCC2=O)c1=O [Compound 193]
Plant response rating, Deadnettle [1, 17]: 100 | Plant response rating, Deadnettle [1, 18]: 100 | Plant response rating, Deadnettle [1, 19]: 100 | Plant response rating, Deadnettle ([1]; 62 g ai/ha, scale 0 to 100 (0 no effect, 100 complete control)): 100 | Plant response rating, Russian Thistle [2, 20]: 90 | Plant response rating, Russian Thistle [2, 21]: 98 | Plant response rating, Russian Thistle [2, 22]: 100 | Russian Thistle plant response rating [2]: 100

SMILES: CCCc1ncc(C(=O)C2=C(O)CCCC2=O)c(=O)n1CCC [Compound 72]
Plant response rating, Russian Thistle [2, 20]: 0 | Plant response rating, Russian Thistle [2, 21]: 30 | Plant response rating, Russian Thistle [2, 22]: 80

melting point: 121 to 122 °C
SMILES: COCCCn1c(-c2ccccc2)ncc(C(=O)C2=C(O)CCCC2=O)c1=O [Compound 81, 5-[(2-hydroxy-6-oxo-cyclohexen-1-yl)carbonyl]-3-(3-methoxypropyl)-2-phenyl-4(3H)-pyrimidinone]
Plant response rating, Russian Thistle [2, 20]: 100 | Plant response rating, Russian Thistle [2, 21]: 100 | Plant response rating, Russian Thistle [2, 22]: 100 | Russian Thistle plant response rating [2]: 100

SMILES: CC(C)Cc1ncc(C(=O)C2=C(O)CCCC2=O)c(=O)n1-c1ccccc1 [Compound 68]
Plant response rating, Russian Thistle [2, 22]: 80

SMILES: O=C1CCCC(O)=C1C(=O)c1cnc(-c2cccs2)n(-c2ccccc2)c1=O [Compound 66]
Plant response rating, Russian Thistle [2, 21]: 0

SMILES: O=C1CCCC(O)=C1C(=O)c1cnc(-c2ccsc2)n(C2CCOCC2)c1=O [Compound 186]
Plant response rating, Deadnettle [1, 17]: 90 | Plant response rating, Deadnettle [1, 18]: 100 | Plant response rating, Deadnettle [1, 19]: 100

SMILES: O=C1CCCC(O)=C1C(=O)c1cnc(-c2ccccc2)n(-c2ccccc2)c1=O [Compound 2, 5-[(2-hydroxy-6-oxo-1-cyclohexen-1-yl)carbonyl]-2,3-diphenyl-4(3H)-pyrimidinone]
Plant response rating: Field Poppy ([3]; 62 g ai/ha): 95 | Plant response rating: Field Poppy ([3]; 125 g ai/ha): 100 | Plant response rating: Field Poppy ([3]; 31 g ai/ha): 75 | Plant response rating: Foxtail, Green ([4]; 62 g ai/ha): 0 | Plant response rating: Foxtail, Green ([4]; 125 g ai/ha): 0 | Plant response rating: Foxtail, Green ([4]; 16 g ai/ha): 0 | Plant response rating: Foxtail, Green ([4]; 31 g ai/ha): 0 | Plant response rating: Mustard, Wild ([5]; 62 g ai/ha): 5 | Plant response rating: Mustard, Wild ([5]; 125 g ai/ha): 35 | Plant response rating: Mustard, Wild ([5]; 16 g ai/ha): 0 | Plant response rating: Mustard, Wild ([5]; 31 g ai/ha): 0 | Plant response rating: Oat, Wild (wild oat (Avena fatua); 62 g ai/ha): 0 | Plant response rating: Oat, Wild (wild oat (Avena fatua); 125 g ai/ha): 0 | Plant response rating: Oat, Wild (wild oat (Avena fatua); 16 g ai/ha): 0 | Plant response rating: Oat, Wild (wild oat (Avena fatua); 31 g ai/ha): 0 | Plant response rating: Blackgrass ([6]; 62 g ai/ha): 0 | Plant response rating: Blackgrass ([6]; 125 g ai/ha): 0 | Plant response rating: Blackgrass ([6]; 16 g ai/ha): 0 | Plant response rating: Blackgrass ([6]; 31 g ai/ha): 0 | Plant response rating: Wheat, Spring ([7]; 62 g ai/ha): 0 | Plant response rating: Wheat, Spring ([7]; 125 g ai/ha): 0 | Plant response rating: Wheat, Spring ([7]; 16 g ai/ha): 0 | Plant response rating: Wheat, Spring ([7]; 31 g ai/ha): 0 | Plant response rating: Bromegrass, Downy ([8]; 62 g ai/ha): 0 | Plant response rating: Bromegrass, Downy ([8]; 125 g ai/ha): 0 | Plant response rating: Bromegrass, Downy ([8]; 16 g ai/ha): 0 | Plant response rating: Bromegrass, Downy ([8]; 31 g ai/ha): 0 | Plant response rating: Bluegrass ([9]; 62 g ai/ha): 0 | Plant response rating: Bluegrass ([9]; 125 g ai/ha): 0 | Plant response rating: Bluegrass ([9]; 16 g ai/ha): 0 | Plant response rating: Bluegrass ([9]; 31 g ai/ha): 0 | Plant response rating: Barley, Winter ([10]; 62 g ai/ha): 0 | Plant response rating: Barley, Winter ([10]; 125 g ai/ha): 0 | Plant response rating: Barley, Winter ([10]; 16 g ai/ha): 0 | Plant response rating: Barley, Winter ([10]; 31 g ai/ha): 0 | Plant response rating: Pigweed ([11]; 62 g ai/ha): 65 | Plant response rating: Pigweed ([11]; 125 g ai/ha): 85 | Plant response rating: Pigweed ([11]; 16 g ai/ha): 0 | Plant response rating: Pigweed ([11]; 31 g ai/ha): 20 | Plant response rating: Buckwheat, Wild ([12]; 62 g ai/ha): 0 | Plant response rating: Buckwheat, Wild ([12]; 125 g ai/ha): 0 | Plant response rating: Buckwheat, Wild ([12]; 16 g ai/ha): 0 | Plant response rating: Buckwheat, Wild ([12]; 31 g ai/ha): 0 | Plant response rating: Kochia (kochia (Kochia scoparia); 62 g ai/ha): 30 | Plant response rating: Kochia (kochia (Kochia scoparia); 125 g ai/ha): 90 | Plant response rating: Kochia (kochia (Kochia scoparia); 16 g ai/ha): 5 | Plant response rating: Kochia (kochia (Kochia scoparia); 31 g ai/ha): 5 | Plant response rating: Barley, Spring ([13]; 62 g ai/ha): 0 | Plant response rating: Barley, Spring ([13]; 125 g ai/ha): 0 | Plant response rating: Barley, Spring ([13]; 16 g ai/ha): 0 | Plant response rating: Barley, Spring ([13]; 31 g ai/ha): 0 | Plant response rating: Field Violet ([14]; 62 g ai/ha): 0 | Plant response rating: Field Violet ([14]; 125 g ai/ha): 0 | Plant response rating: Field Violet ([14]; 16 g ai/ha): 0 | Plant response rating: Field Violet ([14]; 31 g ai/ha): 0 | Russian Thistle Obsd. (observed effect) ([15]; Cmpd 2 62 g a.i./ha alone): 42 | Russian Thistle Obsd. (observed effect) ([15]; Cmpd 2 125 g a.i./ha alone): 52 | Plant response rating: Russian Thistle ([16]; 62 g ai/ha): 0 | Plant response rating: Russian Thistle ([16]; 16 g ai/ha): 0 | Plant response rating: Russian Thistle ([16]; 31 g ai/ha): 0

SMILES: O=C1CCCC(O)=C1C(=O)c1cnc(-c2cccc(Br)c2)n(-c2ccccc2)c1=O [Compound 69]
Plant response rating, Russian Thistle [2, 20]: 100 | Plant response rating, Russian Thistle [2, 21]: 100 | Plant response rating, Russian Thistle [2, 22]: 100

melting point: 168 to 169 °C
SMILES: Cc1c(F)cccc1-n1c(-c2ccccc2)ncc(C(=O)C2=C(O)CCCC2=O)c1=O [Compound 47, 3-(3-fluoro-2-methylphenyl)-5-[(2-hydroxy-6-oxo-1-cyclohexen-1-yl)carbonyl]-2-phenyl-4(3H)-pyrimidinone]
